Assays:
Format in all cases: cell-based
E. coli DH5α = test: Antibacterial activity: MIC and growth curve against E. coli DH5α in 96-well plate; settings: minimal inhibitory concentration against E. coli DH5α; 96-well plate, 5×10^5 CFU/mL, 37° C., judged after 8 h
Procedure, shortened: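 Log-phase DH5α (OD600 about 0.5, 37° C, 185 rpm in LB) was pelleted, resuspended in fresh LB and seeded at 5×10^5 CFU/mL with recombinant protein at 50, 25 and 12.5 μg/mL (two-fold series), in triplicate. Plates were shaken at 175 rpm, 37° C, and OD600 was read every 30 min. MIC was the lowest concentration with no growth.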

E. coli BL21 = test: MIC against Gram-negative bacteria: E. coli BL21; settings: E. coli BL21, 5×10^5 CFU/mL
Procedure, shortened: (§1)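 The recombinant human-originated EGF domain proteins were serially diluted two-fold against bacteria at 5×10^5 CFU/mL in LB medium. After shaken incubation at 37° C, the lowest concentration with no bacterial growth was recorded as the MIC.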

Pseudomonas aeruginosa = test: MIC against Gram-negative bacteria: Pseudomonas aeruginosa; settings: 5×10^5 CFU/mL
Procedure, shortened: as §1

Klebsiella pneumonia = test: MIC against Gram-negative bacteria: Klebsiella pneumonia; settings: 5×10^5 CFU/mL
Procedure, shortened: as §1

Enterobacter cloacae = test: MIC against Gram-negative bacteria: Enterobacter cloacae; settings: 5×10^5 CFU/mL
Procedure, shortened: as §1

Aeromonas hydrophila = test: MIC against Gram-negative bacteria: Aeromonas hydrophila; settings: 5×10^5 CFU/mL
Procedure, shortened: as §1

Citrobacter diversus = test: MIC against Gram-negative bacteria: Citrobacter diversus; settings: 5×10^5 CFU/mL
Procedure, shortened: as §1

Moraxella catarrhalis = test: MIC against Gram-negative bacteria: Moraxella catarrhalis; settings: 5×10^5 CFU/mL
Procedure, shortened: as §1

Proteus mirabilis = test: MIC against Gram-negative bacteria: Proteus mirabilis; settings: 5×10^5 CFU/mL
Procedure, shortened: as §1

Proteus vulgaris = test: MIC against Gram-negative bacteria: Proteus vulgaris; settings: 5×10^5 CFU/mL
Procedure, shortened: as §1

Serratia marcescens = test: MIC against Gram-negative bacteria: Serratia marcescens; settings: 5×10^5 CFU/mL
Procedure, shortened: as §1

[1] = Pseudomonas aeruginosa, 96-well plate, 37° C., 10 h
[2] = Klebsiella pneumonia, 96-well plate, 37° C., 10 h
[3] = Enterobacter cloacae, 96-well plate, 37° C., 10 h
[4] = Aeromonas hydrophila, 96-well plate, 37° C., 10 h
[5] = Citrobacter diversus, 96-well plate, 37° C., 10 h
[6] = Moraxella catarrhalis, 96-well plate, 37° C., 10 h
[7] = Proteus mirabilis, 96-well plate, 37° C., 10 h
[8] = Proteus vulgaris, 96-well plate, 37° C., 10 h
[9] = Serratia marcescens, 96-well plate, 37° C., 10 h
[10] = P. aeruginosa, 10 h cultivation at 37° C.
[11] = K. pneumonia, 10 h cultivation at 37° C.
[12] = E. cloacae, 10 h cultivation at 37° C.
[13] = A. hydrophila, 10 h cultivation at 37° C.
[14] = C. diversus, 10 h cultivation at 37° C.
[15] = M. catarrhalis, 10 h cultivation at 37° C.
[16] = P. mirabilis, 10 h cultivation at 37° C.
[17] = P. vulgaris, 10 h cultivation at 37° C.
[18] = S. marcescens, 10 h cultivation at 37° C.

Substance	MIC (E. coli DH5α) [µg/mL]	MIC (μg/mL) E. coli BL21 (E. coli BL21; 96-well plate, 37° C., 10 h) [µg/mL]	MIC (μg/mL) P. aeruginosa (Pseudomonas aeruginosa; [1]) [µg/mL]	MIC (μg/mL) K. pneumonia (Klebsiella pneumonia; [2]) [µg/mL]	MIC (μg/mL) E. cloacae (Enterobacter cloacae; [3]) [µg/mL]	MIC (μg/mL) A. hydrophila (Aeromonas hydrophila; [4]) [µg/mL]	MIC (μg/mL) C. diversus (Citrobacter diversus; [5]) [µg/mL]	MIC (μg/mL) M. catarrhalis (Moraxella catarrhalis; [6]) [µg/mL]	MIC (μg/mL) P. mirabilis (Proteus mirabilis; [7]) [µg/mL]	MIC (μg/mL) P. vulgaris (Proteus vulgaris; [8]) [µg/mL]	MIC (μg/mL) S. marcescens (Serratia marcescens; [9]) [µg/mL]	MIC (μg/mL) E. coli BL21 (E. coli BL21; 10 h cultivation at 37° C.) [µg/mL]	MIC (μg/mL) P. aeruginosa (Pseudomonas aeruginosa; [10]) [µg/mL]	MIC (μg/mL) K. pneumonia (Klebsiella pneumonia; [11]) [µg/mL]	MIC (μg/mL) E. cloacae (Enterobacter cloacae; [12]) [µg/mL]	MIC (μg/mL) A. hydrophila (Aeromonas hydrophila; [13]) [µg/mL]	MIC (μg/mL) C. diversus (Citrobacter diversus; [14]) [µg/mL]	MIC (μg/mL) M. catarrhalis (Moraxella catarrhalis; [15]) [µg/mL]	MIC (μg/mL) P. mirabilis (Proteus mirabilis; [16]) [µg/mL]	MIC (μg/mL) P. vulgaris (Proteus vulgaris; [17]) [µg/mL]	further results
PRT35 (AMDLCARRLLDPCEHQCDPETGRREHRAAGECLCYEGYMKDPVHKHLCI; listed as Homo sapiens)	12.5	50	25	12.5	50	25	12.5	50	12.5	25	12.5	–	–	–	–	–	–	–	–	–	–
PRT772 (TIVSTESLETLAPGLCQEGQIWNGKQCVCPQGYVGYQCL; listed as Homo sapiens)	12.5	–	–	–	–	–	–	–	–	–	–	50	12.5	50	12.5	50	12.5	25	50	25	MIC (μg/mL) S. marcescens (Serratia marcescens; [18]): 12.5 µg/mL
PRT161 (KVDPCASSPCQNNGTCYVDGVHFTCNCSPGFTGPTCA; listed as Homo sapiens)	12.5	–	–	–	–	–	–	–	–	–	–	12.5	25	12.5	25	50	25	12.5	25	50	MIC (μg/mL) S. marcescens (Serratia marcescens; [18]): 25 µg/mL
PRT5 (DGDQCETSPCQNQGKCKDGLGEYTCTCLEGFEGKNCE; listed as Homo sapiens)	12.5	12.5	25	25	25	12.5	25	25	12.5	12.5	25	–	–	–	–	–	–	–	–	–	–
PRT419 (DIDECALPTGGHICSYRCINIPGSFQCSCPSSGYRLAPNGRNCQ; listed as Homo sapiens)	25	–	–	–	–	–	–	–	–	–	–	–	–	–	–	–	–	–	–	–	MIC (E. coli BL21; 10 h cultivation at 37° C.): 12.5 µg/mL; MIC (Pseudomonas aeruginosa; [10]): 25 µg/mL; MIC (Klebsiella pneumonia; [11]): 50 µg/mL; MIC (Enterobacter cloacae; [12]): 25 µg/mL; MIC (Aeromonas hydrophila; [13]): 12.5 µg/mL; MIC (Citrobacter diversus; [14]): 25 µg/mL; MIC (Moraxella catarrhalis; [15]): 50 µg/mL; MIC (Proteus mirabilis; [16]): 25 µg/mL; MIC (Proteus vulgaris; [17]): 12.5 µg/mL; MIC (Serratia marcescens; [18]): 25 µg/mL
PRT1355 (AELSCPNDCHGQGRCVNGQCVCHEGFMGKDCK; listed as Homo sapiens)	50	–	–	–	–	–	–	–	–	–	–	–	–	–	–	–	–	–	–	–	MIC against E. coli BL21 (E. coli BL21; 10 h cultivation at 37° C.): 25 µg/mL; MIC against P. aeruginosa (Pseudomonas aeruginosa; Pseudomonas aeruginosa, 10 h cultivation at 37° C.): 12.5 µg/mL; MIC against K. pneumonia (Klebsiella pneumonia; Klebsiella pneumonia, 10 h cultivation at 37° C.): 25 µg/mL; MIC against E. cloacae (Enterobacter cloacae; Enterobacter cloacae, 10 h cultivation at 37° C.): 50 µg/mL; MIC against A. hydrophila (Aeromonas hydrophila; Aeromonas hydrophila, 10 h cultivation at 37° C.): 12.5 µg/mL; MIC against C. diversus (Citrobacter diversus; Citrobacter diversus, 10 h cultivation at 37° C.): 50 µg/mL; MIC against M. catarrhalis (Moraxella catarrhalis; Moraxella catarrhalis, 10 h cultivation at 37° C.): 12.5 µg/mL; MIC against P. mirabilis (Proteus mirabilis; Proteus mirabilis, 10 h cultivation at 37° C.): 25 µg/mL; MIC against P. vulgaris (Proteus vulgaris; Proteus vulgaris, 10 h cultivation at 37° C.): 50 µg/mL; MIC against S. marcescens (Serratia marcescens; Serratia marcescens, 10 h cultivation at 37° C.): 25 µg/mL

Reference: patent US9833497B2, “Human originated EGF domain proteins and use of the same” (CHENGDU SOURCEBIO LIMITED-LIABILITY COMPANY, priority 2013, dated 2017)
